The assay has as its system Staphylococcus aureus. Kind of assay: Antibacterial activity against methicillin-resistant Staphylococcus aureus ATCC 43300 after 12 hrs by Broth microdilution method. As to conditions: ATCC 43300, 12 h. The class given is functional, organism-based.
By IC50 is commonly meant the concentration at which inhibition is half-maximal. In turn, `Oc1c(Br)cc(Br)cc1-c1[nH]c(Br)c(Br)c1Br` [PENTABROMOPSEUDILIN] returned an IC50 of 0.1 µM.
The result for `Oc1c(Br)cc(Br)cc1-c1cc(Br)cc(Br)c1O` [BROMOPHENE] reads 2.14 µM.
For `Oc1ccc(Br)cc1-c1cc(Br)cc(Br)c1O`, the IC50 was determined as 2.19 µM.
The result for `CN[C@H](CC(C)C)C(=O)N[C@H]1C(=O)N[C@@H](CC(N)=O)C(=O)N[C@H]2C(=O)N[C@H]3C(=O)N[C@H](C(=O)N[C@H](C(=O)O)c4cc(O)cc(O)c4-c4cc3ccc4O)[C@H](O)c3ccc(c(Cl)c3)Oc3cc2cc(c3O[C@@H]2O[C@H](CO)[C@@H](O)[C@H](O)[C@H]2O[C@H]2C[C@](C)(N)[C@H](O)[C@H](C)O2)Oc2ccc(cc2Cl)[C@H]1O` [VANCOMYCIN] reads 0.91 µM; that for `Brc1cc(Br)c2oc3c(Br)c(Br)[nH]c3c2c1`, 1.93 µM.

The values are drawn from ChEMBL document CHEMBL1641395, “Highly brominated antimicrobial metabolites from a marine Pseudoalteromonas sp” (J Nat Prod, 2010).
